Test system: HiBiT-HSD17β13 fusion protein (N-terminal HiBiT-tagged HSD17β13 isoform D) in Huh7 HiBiT-HSD17β13 OE cells
Experiment: Whole-cell Huh7-HSD17B13 HiBiT assay (degrader potency and maximal efficacy, luminescence readout)
Assay type: cell-based, human
Conditions: 24 hour incubation, geometric mean, * = geometric mean for all forms tested (parent and salt forms); for DC50: read-out: Huh7_HIBIT-HSD17β13_DC50 GMean DC50; for Huh7_HIBIT-HSD17β13_DC50 GMean Asymptote Maximum: max. concentration 1 μM
Protocol: Degrader potency and maximal efficacy of test compounds were determined using a whole-cell Huh7-HSD17B13 HiBiT assay, utilizing a luminescence readout. A HiBiT tag was fused to the N-terminus of HSD17β13, and therefore the HiBiT luminescence signal produced in the assay was proportional to the level of HiBiT-HSD17β13 fusion protein in a sample.
A Huh7 HiBiT-HSD17β13 OE cell line was generated using electroporation with an N-terminal HiBiT-tagged HSD17β13 isoform D overexpression plasmid, followed by geneticin selection to produce a stable pool. Clones were created with varying HiBiT signals to optimize HiBiT HSD17 β13 ratios. A clone with similar HSD17β13 expression levels as human primary hepatocytes was selected for the compound screen.
Greiner 384-well white opaque, flat bottom, tissue culture treated plates (Greiner #781080) were used for both HiBiT and CTG assays. The treated plates were spotted with 25 nL of a compound which had been serial diluted 1 in 3.162 in 100% DMSO for an 11-point concentration response curve, with duplicate points at each concentration. The maximum concentration of the compounds was 1 mM, which was later diluted with cell suspension for a maximum concentration of 1 μM). High percentage effect (HPE) wells and zero percentage effect (ZPE) wells located in columns 1 and 24 were spotted with 25 nL of DMSO (Sigma #D2650) using an ECHO Acoustic Liquid Handler (Labcyte Echo 550 Series). Each plate was performed in duplicate.
The Huh7 HiBiT-HSD17β13 OE cells were plated on top of a compound or a DMSO control at 3,000 viable cells/well in 25 μL growth media (DMEM (Gibco #10569), 10% FBS HI (Gibco #16140), 1× Pen/Strep (Gibco #15070), 1×MEM Non-Essential Amino Acids (Gibco #11140), and 300 μg/mL Geneticin (Gibco #10131) in columns 2-24 of the plates. Huh7 parental cells were plated using the same parameters in column 1 (HPE) in the same culture medium, excluding Geneticin selection. Cells were incubated overnight with the compounds for 24 hours (with lid) at 37° C. ([…]).
Each assay was conducted after a 24 hour incubation period. In the HiBiT assay plates, 25 μL of complete Nano-Glo HiBiT Lytic detection system (Promega #PRN3040), consisting of HiBiT Lytic Buffer with the addition of 1:100 LgBiT Protein and 1:50 Substrate, was added to each well. In CTG counter screen plates, 25 μL of Cell Titer-Glo Luminescent Reagent (Promega #G7573) was added to each well. Both plates were centrifuged for 2 minutes at 1000 rpm and incubated at room temperature, in the dark, for 10 minutes. Then Luminescence was read using an EnVision Plate Reader (Perkin Elmer PE2103).
The raw data from the Envision Plate Reader was expressed as relative luminescence units (RLUs) for each well of the assay plates. Using HPE and ZPE controls, the % effect was calculated for each sample well as follows: Percent effect=[(sample RLU−HPE RLU)\(ZPE RLU−HPE RLU)]*100. The percent effect was plotted versus the compound concentration and a 50% degradation ([…]) was determined using a four-parameter logistic dose response equation. The raw data was analyzed using ABase (IDBS).

SMILES	DC50 [nM]	Huh7_HIBIT-HSD17β13_DC50 GMean Asymptote Maximum
Cn1c(=O)n(C2CCC(=O)NC2=O)c2ccc(CCCN3CCN(c4ncc(-c5ccn6cc(C78CCC(CNC(=O)c9cc(F)c(O)c(F)c9F)(CC7)CC8)nc6c5)cn4)CC3)cc21.O=C(O)C(F)(F)F (racemic) [Example 12, N-{[4-(7-{2-[4-(3-{1-[(3RS)-2,6-Dioxopiperidin-3-yl]-3-methyl-2-oxo-2,3-dihydro-1H-benzimidazol-5-yl}propyl)piperazin-1-yl]pyrimidin-5-yl}imidazo[1,2-a]pyridin-2-yl)bicyclo[2.2.2]octan-1-yl]methyl}-2,3,5-trifluoro-4-hydroxybenzamide, trifluoroacetate salt]	0.14	84%
Cn1c(=O)n(C2CCC(=O)NC2=O)c2ccc(CCCN3CCOC4(C3)CN(c3ncc(-c5ccc6cn(C7CCC(CNC(=O)c8cc(F)c(O)c(F)c8F)CC7)nc6c5)cn3)C4)cc21.O=C(O)C(F)(F)F (racemic) [Example 13, N-{[(1r,4r)-4-(6-{2-[8-(3-{1-[(3RS)-2,6-Dioxopiperidin-3-yl]-3-methyl-2-oxo-2,3-dihydro-1H-benzimidazol-5-yl}propyl)-5-oxa-2,8-diazaspiro[3.5]nonan-2-yl]pyrimidin-5-yl}-2H-indazol-2-yl)cyclohexyl]methyl}-2,3,5-trifluoro-4-hydroxybenzamide, trifluoroacetate salt]	0.14	81%
Cn1c(=O)n(C2CCC(=O)NC2=O)c2ccc(CCN3CCN(c4cncc(-c5ccc6cn(C7CCC(CNC(=O)c8cc(F)c(O)c(F)c8F)CC7)nc6c5)n4)CC3)cc21.O=C(O)C(F)(F)F (racemic) [Example 14, N-{[(1r,4r)-4-(6-{6-[4-(2-{1-[(3RS)-2,6-Dioxopiperidin-3-yl]-3-methyl-2-oxo-2,3-dihydro-1H-benzimidazol-5-yl}ethyl)piperazin-1-yl]pyrazin-2-yl}-2H-indazol-2-yl)cyclohexyl]methyl}-2,3,5-trifluoro-4-hydroxybenzamide, trifluoroacetate salt]	0.23	85%
Cn1c(=O)n(C2CCC(=O)NC2=O)c2ccc(CCCN3CCN(c4ccc(-c5noc(C67CCC(CNC(=O)c8cc(F)c(O)c(F)c8F)(CC6)CC7)n5)nn4)CC3)cc21.O=C(O)C(F)(F)F (racemic) [Example 15, N-{[4-(3-{6-[4-(3-{1-[(3RS)-2,6-Dioxopiperidin-3-yl]-3-methyl-2-oxo-2,3-dihydro-1H-benzimidazol-5-yl}propyl)piperazin-1-yl]pyridazin-3-yl}-1,2,4-oxadiazol-5-yl)bicyclo[2.2.2]octan-1-yl]methyl}-2,3,5-trifluoro-4-hydroxybenzamide, trifluoroacetate salt]	0.31	85%
Cn1c(=O)n(C2CCC(=O)NC2=O)c2ccc(CCCN3CCN(c4nccc(-c5nc(C6CCC(CNC(=O)c7cc(F)c(O)c(F)c7F)CC6)no5)n4)CC3)cc21.O=C(O)C(F)(F)F (racemic) [Example 17, N-{[(1r,4r)-4-(5-{2-[4-(3-{1-[(3RS)-2,6-Dioxopiperidin-3-yl]-3-methyl-2-oxo-2,3-dihydro-1H-benzimidazol-5-yl}propyl)piperazin-1-yl]pyrimidin-4-yl}-1,2,4-oxadiazol-3-yl)cyclohexyl]methyl}-2,3,5-trifluoro-4-hydroxybenzamide, trifluoroacetate salt]	0.47	85%

More lines, main results first:

DC50 [nM]	SMILES	Huh7_HIBIT-HSD17β13_DC50 GMean Asymptote Maximum
0.21	Cl.Cn1c(=O)n(C2CCC(=O)NC2=O)c2ccc(CCN3CCN(c4cnc(-c5ccc6cn(C7CCC(CNC(=O)c8cc(F)c(O)c(F)c8F)CC7)nc6c5)cn4)CC3)cc21 (racemic) [Example 8, N-{[(1r,4r)-4-(6-{5-[4-(2-{1-[(3RS)-2,6-Dioxopiperidin-3-yl]-3-methyl-2-oxo-2,3-dihydro-1H-benzimidazol-5-yl}ethyl)piperazin-1-yl]pyrazin-2-yl}-2H-indazol-2-yl)cyclohexyl]methyl}-2,3,5-trifluoro-4-hydroxybenzamide, hydrochloride salt]	87* %
0.26	Cl.Cn1c(=O)n(C2CCC(=O)NC2=O)c2ccc(CCN3CCN(c4ccc5cn(C6CCC(CNC(=O)c7cc(F)c(O)c(F)c7F)CC6)nc5c4)CC3)cc21 (racemic) [Example 9, N-{[(1r,4r)-4-{6-[4-(2-{1-[(3RS)-2,6-Dioxopiperidin-3-yl]-3-methyl-2-oxo-2,3-dihydro-1H-benzimidazol-5-yl}ethyl)piperazin-1-yl]-2H-indazol-2-yl}cyclohexyl]methyl}-2,3,5-trifluoro-4-hydroxybenzamide, hydrochloride salt]	83* %
0.42	Cn1c(=O)n(C2CCC(=O)NC2=O)c2ccc(CCCN3CCN(c4ccc5nn(C6CCC(CNC(=O)c7cc(F)c(O)c(F)c7F)CC6)cc5n4)CC3)cc21.O=CO (racemic) [Example 16, N-{[(1r,4r)-4-{5-[4-(3-{1-[(3RS)-2,6-Dioxopiperidin-3-yl]-3-methyl-2-oxo-2,3-dihydro-1H-benzimidazol-5-yl}propyl)piperazin-1-yl]-2H-pyrazolo[4,3-b]pyridin-2-yl}cyclohexyl]methyl}-2,3,5-trifluoro-4-hydroxybenzamide, formate salt]	82%
0.58	Cn1c(=O)n(C2CCC(=O)NC2=O)c2ccc(CCCN3CCN(c4nccc(-c5ncc(C67CCC(CNC(=O)c8cc(F)c(O)c(F)c8F)(CC6)CC7)o5)n4)CC3)cc21 (racemic) [Example 18, N-{[4-(2-{2-[4-(3-{1-[(3RS)-2,6-Dioxopiperidin-3-yl]-3-methyl-2-oxo-2,3-dihydro-1H-benzimidazol-5-yl}propyl)piperazin-1-yl]pyrimidin-4-yl}-1,3-oxazol-5-yl)bicyclo[2.2.2]octan-1-yl]methyl}-2,3,5-trifluoro-4-hydroxybenzamide]	82%
0.38	Cn1c(=O)n(C2CCC(=O)NC2=O)c2ccc(CCCN3CCc4nc(-c5ccc6cn([C@H]7CC[C@H](CNC(=O)c8cc(F)c(O)c(F)c8F)CC7)nc6c5)ccc4C3)cc21 (mixture of isomers) [Example 21, N-{[(1r,4r)-4-{6-[6-(3-{1-[(3RS)-2,6-Dioxopiperidin-3-yl]-3-methyl-2-oxo-2,3-dihydro-1H-benzimidazol-5-yl}propyl)-5,6,7,8-tetrahydro-1,6-naphthyridin-2-yl]-2H-indazol-2-yl}cyclohexyl]methyl}-2,3,5-trifluoro-4-hydroxybenzamide]	74%
1.6	Cn1c(=O)n(C2CCC(=O)NC2=O)c2ccc(CCCN3C[C@H]4CCN(c5ccc6cn(C7CCC(CNC(=O)c8cc(F)c(O)c(F)c8F)CC7)nc6c5)C[C@H]4C3)cc21.O=CO (mixture of isomers) [Example 22, N-{[(1r,4r)-4-{6-[(3aR,7aS)-2-(3-{1-[(3RS)-2,6-Dioxopiperidin-3-yl]-3-methyl-2-oxo-2,3-dihydro-1H-benzimidazol-5-yl}propyl)octahydro-5H-pyrrolo[3,4-c]pyridin-5-yl]-2H-indazol-2-yl}cyclohexyl]methyl}-2,3,5-trifluoro-4-hydroxybenzamide, formate salt]	77%

From patent US20240238425A1, “HSD17B13 Inhibitors and/or Degraders” (Pfizer Inc., priority 2022, published 2024)
